Source: ChEMBL document CHEMBL3997792, “Identification of the First Selective Activin Receptor-Like Kinase 1 Inhibitor, a Reversible Version of L-783277” (J Med Chem, 2017)
Blank lines part the entries; values can stand above or below the molecule they belong to. Active and inactive are the calls of the source. The rule behind the calls is not given here.

Assays:
[1] = biological target: Dual specificity mitogen-activated protein kinase kinase 4 (Homo sapiens) (UniProt P45985); details: 1 uM
Description: Inhibition of human MKK4 at 1 uM using JNK1 as substrate in presence of [gamma-33P]-ATP by scintillation counting method relative to control

[2] = biological target: T1, Activin receptor type-1-like (Mus musculus) (UniProt Q61288); test: Inhibition of BMP9-stimulated ALK1 in mouse C2C12 cells assessed as decrease in p38 phosphorylation at 0.1 to 10 uM pretreated for 2 hrs followed by BMP9-stimulation after 30 mins by western blot analysis; format: cell-based
T1 sequence (whole entry): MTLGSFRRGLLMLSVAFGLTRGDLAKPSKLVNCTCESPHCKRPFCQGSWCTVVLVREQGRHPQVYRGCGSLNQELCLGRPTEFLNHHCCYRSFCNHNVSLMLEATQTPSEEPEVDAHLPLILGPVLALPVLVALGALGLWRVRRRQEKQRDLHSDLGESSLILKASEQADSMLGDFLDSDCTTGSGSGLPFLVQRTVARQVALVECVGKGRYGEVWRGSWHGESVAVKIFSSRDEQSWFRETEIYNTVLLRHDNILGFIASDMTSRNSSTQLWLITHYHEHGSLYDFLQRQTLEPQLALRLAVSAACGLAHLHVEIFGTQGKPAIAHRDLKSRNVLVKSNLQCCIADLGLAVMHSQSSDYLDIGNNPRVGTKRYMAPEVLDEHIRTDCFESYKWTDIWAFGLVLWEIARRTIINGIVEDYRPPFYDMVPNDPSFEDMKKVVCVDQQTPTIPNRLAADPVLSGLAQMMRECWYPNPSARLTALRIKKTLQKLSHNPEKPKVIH

[3] = biological target: Dual specificity mitogen-activated protein kinase kinase 6 (Homo sapiens) (UniProt P52564); test: Inhibition of human MKK6 at 1 uM using p38a as substrate in presence of [gamma-33P]-ATP by scintillation counting method relative to control
Chain of Dual specificity mitogen-activated protein kinase kinase 6 (Homo sapiens) (P52564 whole entry): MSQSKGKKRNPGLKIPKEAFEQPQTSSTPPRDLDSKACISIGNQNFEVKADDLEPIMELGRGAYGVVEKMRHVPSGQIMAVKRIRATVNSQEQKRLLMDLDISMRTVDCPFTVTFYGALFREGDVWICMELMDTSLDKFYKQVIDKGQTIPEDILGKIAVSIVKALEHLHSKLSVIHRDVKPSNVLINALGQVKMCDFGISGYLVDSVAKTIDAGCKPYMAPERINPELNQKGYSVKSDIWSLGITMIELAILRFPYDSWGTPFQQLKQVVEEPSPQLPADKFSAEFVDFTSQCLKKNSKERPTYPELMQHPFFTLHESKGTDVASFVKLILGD

TGF-beta receptor type-1 [4] = biological target: T2, TGF-beta receptor type-1 (Mus musculus, UniProt Q64729); test: Inhibition of ALK5 in mouse C2C12 cells assessed as decrease in TGFbeta1-induced Smad2/3 phosphorylation at 0.1 to 10 uM by Western blot method; format: cell-based
T2 sequence (Q64729 whole entry): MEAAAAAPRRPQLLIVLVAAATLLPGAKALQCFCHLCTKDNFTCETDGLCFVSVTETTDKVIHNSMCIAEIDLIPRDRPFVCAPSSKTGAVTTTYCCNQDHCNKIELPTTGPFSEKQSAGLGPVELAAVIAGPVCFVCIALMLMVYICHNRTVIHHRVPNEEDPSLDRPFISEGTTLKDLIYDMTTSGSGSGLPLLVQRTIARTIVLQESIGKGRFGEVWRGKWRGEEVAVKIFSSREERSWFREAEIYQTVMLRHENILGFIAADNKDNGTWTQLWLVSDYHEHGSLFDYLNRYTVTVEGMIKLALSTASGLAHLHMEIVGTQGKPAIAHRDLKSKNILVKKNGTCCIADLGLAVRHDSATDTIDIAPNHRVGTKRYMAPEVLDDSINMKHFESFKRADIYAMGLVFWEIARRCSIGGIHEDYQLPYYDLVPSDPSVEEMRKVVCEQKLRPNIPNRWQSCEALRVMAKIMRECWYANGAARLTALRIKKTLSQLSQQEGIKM

[5] = biological target: Vascular endothelial growth factor receptor 2 (Homo sapiens, UniProt P35968); test: Inhibition of human KDR using poly[Glu:Tyr] (4:1) as substrate in presence of [gamma-33P]-ATP by scintillation counting method
[6] = biological target: TGF-beta receptor type-2 (Homo sapiens) (UniProt P37173); details: 1 uM
Description: Inhibition of human TGFbetaR2 at 1 uM using myelin basic protein as substrate in presence of [gamma-33P]-ATP by scintillation counting method relative to control

[7] = biological target: T1, Activin receptor type-1-like (Mus musculus); test: Inhibition of BMP9-stimulated ALK1 in mouse C2C12 cells assessed as decrease in MEK phosphorylation at 0.1 to 10 uM pretreated for 2 hrs followed by BMP9-stimulation after 30 mins by western blot analysis; format: cell-based
[8] = biological target: T3, Activin receptor type-1-like (Homo sapiens, UniProt P37023); details: 0.1 to 10 uM
T3 sequence (P37023 whole entry): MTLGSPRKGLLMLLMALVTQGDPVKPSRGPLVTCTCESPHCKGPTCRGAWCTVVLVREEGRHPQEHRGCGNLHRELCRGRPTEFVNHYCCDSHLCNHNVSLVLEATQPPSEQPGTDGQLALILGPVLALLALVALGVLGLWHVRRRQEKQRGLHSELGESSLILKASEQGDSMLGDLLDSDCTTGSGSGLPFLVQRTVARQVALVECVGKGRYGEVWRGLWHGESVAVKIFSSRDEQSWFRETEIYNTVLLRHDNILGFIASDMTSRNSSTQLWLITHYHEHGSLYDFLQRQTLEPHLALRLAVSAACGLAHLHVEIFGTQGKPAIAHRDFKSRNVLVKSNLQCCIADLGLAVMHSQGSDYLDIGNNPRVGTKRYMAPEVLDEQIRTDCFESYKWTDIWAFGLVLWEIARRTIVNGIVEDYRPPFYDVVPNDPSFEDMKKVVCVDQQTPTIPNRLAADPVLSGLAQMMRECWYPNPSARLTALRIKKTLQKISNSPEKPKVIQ
Description: Inhibition of ALK1 in human A375 cells assessed as decrease in MEK1/2 phosphorylation at 0.1 to 10 uM by western blot analysis

[9] = biological target: Mitogen-activated protein kinase kinase kinase 20 (Homo sapiens) (UniProt Q9NYL2); details: 1 uM
Chain of Mitogen-activated protein kinase kinase kinase 20 (Homo sapiens) (Q9NYL2 2-800 limits assumed): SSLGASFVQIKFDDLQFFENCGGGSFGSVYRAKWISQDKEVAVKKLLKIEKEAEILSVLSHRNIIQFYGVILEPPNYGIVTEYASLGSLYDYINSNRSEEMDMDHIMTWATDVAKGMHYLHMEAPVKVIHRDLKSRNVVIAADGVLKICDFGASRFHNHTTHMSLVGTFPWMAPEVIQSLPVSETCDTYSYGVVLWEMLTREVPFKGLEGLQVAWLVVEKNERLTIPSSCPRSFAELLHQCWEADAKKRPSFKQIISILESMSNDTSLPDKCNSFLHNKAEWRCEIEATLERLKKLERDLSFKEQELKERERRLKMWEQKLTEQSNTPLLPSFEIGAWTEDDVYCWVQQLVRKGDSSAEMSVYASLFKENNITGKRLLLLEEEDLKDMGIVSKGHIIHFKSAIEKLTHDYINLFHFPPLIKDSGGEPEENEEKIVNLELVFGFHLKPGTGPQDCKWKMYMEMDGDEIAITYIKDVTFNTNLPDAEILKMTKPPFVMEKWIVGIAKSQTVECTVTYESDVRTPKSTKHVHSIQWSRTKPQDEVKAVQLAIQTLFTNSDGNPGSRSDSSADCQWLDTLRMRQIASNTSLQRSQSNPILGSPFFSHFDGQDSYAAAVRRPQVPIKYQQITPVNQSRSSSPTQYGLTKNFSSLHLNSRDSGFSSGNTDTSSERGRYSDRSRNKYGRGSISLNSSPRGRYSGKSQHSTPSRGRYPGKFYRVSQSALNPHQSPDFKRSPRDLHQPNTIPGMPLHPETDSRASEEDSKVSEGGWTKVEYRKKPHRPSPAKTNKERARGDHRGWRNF
Description: Inhibition of human ZAK at 1 uM using myelin basic protein as substrate in presence of [gamma-33P]-ATP by scintillation counting method relative to control

[10] = biological target: Vascular endothelial growth factor receptor 3 (Homo sapiens, UniProt P35916); test: Inhibition of human FLT4 using poly[Glu:Tyr] (4:1) as substrate in presence of [gamma-33P]-ATP by scintillation counting method
Chain of Vascular endothelial growth factor receptor 3 (P35916 whole entry): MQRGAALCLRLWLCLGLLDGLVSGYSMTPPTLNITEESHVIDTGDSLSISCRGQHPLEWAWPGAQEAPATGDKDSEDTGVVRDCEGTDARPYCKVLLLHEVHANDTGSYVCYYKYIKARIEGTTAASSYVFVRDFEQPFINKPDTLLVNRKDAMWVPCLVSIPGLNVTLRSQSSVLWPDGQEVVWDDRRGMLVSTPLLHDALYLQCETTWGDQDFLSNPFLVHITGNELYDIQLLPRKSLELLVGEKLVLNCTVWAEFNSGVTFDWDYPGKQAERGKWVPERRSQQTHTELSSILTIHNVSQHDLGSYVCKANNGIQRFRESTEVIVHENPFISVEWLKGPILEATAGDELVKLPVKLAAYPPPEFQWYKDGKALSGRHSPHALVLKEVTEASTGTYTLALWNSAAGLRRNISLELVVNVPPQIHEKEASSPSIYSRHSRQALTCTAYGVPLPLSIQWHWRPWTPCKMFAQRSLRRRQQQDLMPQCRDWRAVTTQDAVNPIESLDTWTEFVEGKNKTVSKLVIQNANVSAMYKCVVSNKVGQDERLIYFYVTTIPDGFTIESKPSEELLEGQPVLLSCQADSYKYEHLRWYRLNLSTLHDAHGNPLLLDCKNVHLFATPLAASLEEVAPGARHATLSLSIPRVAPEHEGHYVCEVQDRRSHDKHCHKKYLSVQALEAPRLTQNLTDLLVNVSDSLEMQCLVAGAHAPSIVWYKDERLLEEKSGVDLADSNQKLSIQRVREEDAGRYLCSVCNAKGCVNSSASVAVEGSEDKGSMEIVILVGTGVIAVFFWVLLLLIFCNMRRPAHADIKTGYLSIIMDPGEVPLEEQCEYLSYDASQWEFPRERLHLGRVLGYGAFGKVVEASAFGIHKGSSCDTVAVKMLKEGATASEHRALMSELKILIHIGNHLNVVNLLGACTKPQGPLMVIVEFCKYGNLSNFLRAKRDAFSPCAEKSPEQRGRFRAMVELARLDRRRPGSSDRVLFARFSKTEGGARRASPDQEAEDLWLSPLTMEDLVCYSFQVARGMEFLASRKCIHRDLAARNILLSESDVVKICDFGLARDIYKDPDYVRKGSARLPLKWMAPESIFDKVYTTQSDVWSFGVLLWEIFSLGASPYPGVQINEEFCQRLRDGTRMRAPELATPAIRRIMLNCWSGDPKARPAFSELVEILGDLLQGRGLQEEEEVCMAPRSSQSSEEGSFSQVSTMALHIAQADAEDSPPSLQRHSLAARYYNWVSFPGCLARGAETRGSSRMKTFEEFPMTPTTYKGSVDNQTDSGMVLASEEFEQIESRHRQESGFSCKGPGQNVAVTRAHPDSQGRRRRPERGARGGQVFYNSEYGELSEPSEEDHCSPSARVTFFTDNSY

[11] = biological target: Dual specificity mitogen-activated protein kinase kinase 2 (Homo sapiens, UniProt P36507); test: Inhibition of human MEK2 using ERK2 as substrate in presence of [gamma-33P]-ATP by scintillation counting method
Chain of Dual specificity mitogen-activated protein kinase kinase 2 (P36507 whole entry): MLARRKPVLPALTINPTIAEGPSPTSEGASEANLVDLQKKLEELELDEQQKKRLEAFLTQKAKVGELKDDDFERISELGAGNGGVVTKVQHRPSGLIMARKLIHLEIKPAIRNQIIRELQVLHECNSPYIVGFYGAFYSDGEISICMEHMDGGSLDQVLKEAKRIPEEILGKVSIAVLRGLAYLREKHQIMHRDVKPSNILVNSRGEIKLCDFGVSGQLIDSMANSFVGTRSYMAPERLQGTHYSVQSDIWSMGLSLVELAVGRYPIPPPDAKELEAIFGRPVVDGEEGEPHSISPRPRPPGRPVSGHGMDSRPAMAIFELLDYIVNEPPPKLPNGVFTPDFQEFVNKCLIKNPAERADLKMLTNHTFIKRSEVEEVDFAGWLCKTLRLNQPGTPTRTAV

[12] = biological target: Mitogen-activated protein kinase kinase kinase 7 (Homo sapiens) (UniProt O43318); details: 1 uM
Chain of Mitogen-activated protein kinase kinase kinase 7 (Homo sapiens) (O43318 whole entry): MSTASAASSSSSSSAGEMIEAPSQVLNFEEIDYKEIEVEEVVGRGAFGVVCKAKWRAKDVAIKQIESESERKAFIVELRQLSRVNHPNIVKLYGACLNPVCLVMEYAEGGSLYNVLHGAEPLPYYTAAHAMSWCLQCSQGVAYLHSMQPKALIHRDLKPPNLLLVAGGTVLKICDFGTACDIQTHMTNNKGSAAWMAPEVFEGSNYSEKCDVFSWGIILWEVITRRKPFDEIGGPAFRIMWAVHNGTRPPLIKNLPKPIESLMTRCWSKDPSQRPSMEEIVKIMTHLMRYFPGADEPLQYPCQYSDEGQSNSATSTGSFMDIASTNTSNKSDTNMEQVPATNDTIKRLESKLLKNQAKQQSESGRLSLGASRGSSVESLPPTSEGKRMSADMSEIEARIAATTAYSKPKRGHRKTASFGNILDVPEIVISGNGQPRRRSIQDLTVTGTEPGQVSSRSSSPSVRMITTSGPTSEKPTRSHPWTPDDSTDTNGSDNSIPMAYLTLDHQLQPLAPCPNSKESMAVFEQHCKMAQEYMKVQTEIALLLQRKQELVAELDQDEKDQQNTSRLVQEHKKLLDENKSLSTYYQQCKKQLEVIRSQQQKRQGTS
Description: Inhibition of human TAK1 at 1 uM using casein as substrate in presence of [gamma-33P]-ATP by scintillation counting method relative to control

[13] = biological target: MAP kinase-interacting serine/threonine-protein kinase 1 (Homo sapiens) (UniProt Q9BUB5); details: 1 uM
Description: Inhibition of human MNK1 at 1 uM using myelin basic protein as substrate in presence of [gamma-33P]-ATP by scintillation counting method relative to control

[14] = biological target: T1, Activin receptor type-1-like (Mus musculus); test: Inhibition of BMP9-stimulated ALK1 in mouse C2C12 cells assessed as decrease in ERK1/2 phosphorylation at 0.1 to 10 uM pretreated for 2 hrs followed by BMP9-stimulation after 30 mins by western blot analysis; format: cell-based
TGF-beta receptor type-1 [15] = biological target: T2, TGF-beta receptor type-1; test: Inhibition of ALK5 in mouse C2C12 assessed as decrease in TGFbeta1-induced Smad1/5 phosphorylation at 0.1 to 10 uM by Western blot method
[16] = biological target: MAP kinase-interacting serine/threonine-protein kinase 2 (Homo sapiens) (UniProt Q9HBH9); details: 1 uM
Description: Inhibition of human MNK2 at 1 uM using myelin basic protein as substrate in presence of [gamma-33P]-ATP by scintillation counting method relative to control

[17] = biological target: Receptor-type tyrosine-protein kinase FLT3 (Homo sapiens, UniProt P36888); test: Inhibition of human FLT3 using EAIYAAPFAKKK peptide as substrate in presence of [gamma-33P]-ATP by scintillation counting method
Chain of Receptor-type tyrosine-protein kinase FLT3 (P36888 whole entry): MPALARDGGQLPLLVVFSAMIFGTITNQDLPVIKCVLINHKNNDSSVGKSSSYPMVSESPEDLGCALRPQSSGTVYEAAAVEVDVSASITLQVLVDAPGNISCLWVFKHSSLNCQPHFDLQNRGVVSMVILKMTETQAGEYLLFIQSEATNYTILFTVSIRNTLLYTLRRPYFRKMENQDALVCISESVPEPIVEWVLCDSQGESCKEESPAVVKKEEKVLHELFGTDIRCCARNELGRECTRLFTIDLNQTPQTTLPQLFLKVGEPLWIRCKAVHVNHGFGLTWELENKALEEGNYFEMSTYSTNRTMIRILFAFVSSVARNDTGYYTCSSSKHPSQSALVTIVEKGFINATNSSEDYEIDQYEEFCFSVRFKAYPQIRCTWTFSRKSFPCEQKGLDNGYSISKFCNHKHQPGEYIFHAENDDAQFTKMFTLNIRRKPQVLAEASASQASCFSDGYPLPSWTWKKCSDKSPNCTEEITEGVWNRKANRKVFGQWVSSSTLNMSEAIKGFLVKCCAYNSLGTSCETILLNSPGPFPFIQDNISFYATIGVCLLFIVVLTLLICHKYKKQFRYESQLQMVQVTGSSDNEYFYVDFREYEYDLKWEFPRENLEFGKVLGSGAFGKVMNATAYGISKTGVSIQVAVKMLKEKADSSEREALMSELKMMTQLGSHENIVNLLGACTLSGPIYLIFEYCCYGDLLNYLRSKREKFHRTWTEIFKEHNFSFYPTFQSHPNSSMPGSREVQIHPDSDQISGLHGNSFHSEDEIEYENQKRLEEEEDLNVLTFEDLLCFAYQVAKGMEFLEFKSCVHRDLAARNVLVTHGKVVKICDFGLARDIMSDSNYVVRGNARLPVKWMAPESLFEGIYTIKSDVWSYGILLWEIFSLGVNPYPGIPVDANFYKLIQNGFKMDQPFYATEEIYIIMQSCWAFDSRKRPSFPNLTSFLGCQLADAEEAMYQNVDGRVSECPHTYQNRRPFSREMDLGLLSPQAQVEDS

[18] = biological target: T3, Activin receptor type-1-like; test: Inhibition of human ALK1 using casein as substrate in presence of [gamma-33P]-ATP by scintillation counting method
[19] = biological target: Dual specificity mitogen-activated protein kinase kinase 6 (Homo sapiens, UniProt P52564); test: Inhibition of human MKK6 using p38a as substrate in presence of [gamma-33P]-ATP by scintillation counting method
Chain of Dual specificity mitogen-activated protein kinase kinase 6 (P52564 whole entry): as the sequence (P52564 whole entry) above

[20] = biological target: T1, Activin receptor type-1-like (Mus musculus); test: Inhibition of BMP9-stimulated ALK1 in mouse C2C12 cells assessed as reduction in Smad1/5 phosphorylation at 0.1 to 10 uM pretreated for 2 hrs followed by BMP9-stimulation after 30 mins by western blot analysis; format: cell-based
[21] = biological target: T1, Activin receptor type-1-like (Mus musculus); test: Inhibition of BMP9-stimulated ALK1 in mouse C2C12 cells assessed as reduction in Smad1/5 phosphorylation at 10 uM pretreated for 2 hrs followed by BMP9-stimulation after 30 mins by western blot analysis relative to control; format: cell-based

SMILES: COc1cc(O)c2c(c1)CCC[C@H](O)[C@H](O)C(=O)/C=C\C[C@H](C)OC2=O
inhibition [1]: > 80% | inhibition [2]: Active | inhibition [3]: > 80% | inhibition (INH) (TGF-beta receptor type-1 [4]): Active | IC50 [5]: 6.34 nM | inhibition [6]: > 80% | inhibition [7]: Active | inhibition [8]: Active | inhibition [9]: > 80% | IC50 [10]: 1.13 nM | IC50 [11]: 8.16 nM | inhibition [12]: > 80% | inhibition [13]: > 80% | inhibition [14]: Active | inhibition (INH) (TGF-beta receptor type-1 [15]): Active | inhibition [16]: > 80% | IC50 [17]: 1.59 nM | IC50 [18]: 125 nM | IC50 [19]: 388 nM | inhibition [20]: Active

inhibition [21]: Active | IC50 [18]: 1780 nM
SMILES: COc1cc(O)c2c(c1)CCC[C@H](O)[C@H](O)[C@H](O)CCC[C@H](C)OC2=O
